Key:
[1] = system: Human brain astroblastoma cell line U-87MG; experiment: Tumor-suppressing effect on subcutaneously transplanted U-87MG tumors in nude mice (tumor weight, IRTW); assay type: in vivo, BALB/C-nu/nu mice; details: intraperitoneal injection; for Tumor-suppressing rate (%): IRTW vs model group; for Tumor weight: U-87MG tumor, end of experiment, mean±SD
Method: 4. Laboratory animals • Animal species: BALB/C-nu/nu mice • Animal grade: SPF grade • Gender and quantity:42 females • Animal age at the start of an experiment: 6 weeks old • Animal body weight at the start of an experiment: 18±2 g • Animal source: Vital River Laboratory Animal Technology Co., Ltd.
Cell source and cultivation conditions: Human brain astroblastoma cell line U-87MG: which came from the Cell Resource Center of the Shanghai Institutes for Biological Sciences (SIBS); medium: MEM medium including 1% penicillin-streptomycin sulfate mixed solution (100 ×) and 10% fetal bovine serum (FBS) (from Australia); cultivation conditions: 5% CO2 and 37° C.; and the cell line was frozen by Marine Biomedical Research Institute of Qingdao.
The cell line U-87MG stored in liquid nitrogen was recovered, inoculated in a corresponding medium including 10% FBS, 100 U/mL penicillin, and 100 […] streptomycin, and cultivated in the cell culture incubator at 37° C. and 5% CO2. The cells were passaged every two days.
After the cells were passaged four times, resulting cells were collected through digestion with 0.05% trypsin-EDTA, counted under a microscope, and resuspended with a medium to obtain a cell suspension with 5×10^7 cells/mL; a mouse was routinely disinfected, and 0.2 mL of the cell suspension was subcutaneously inoculated in an axillary region of a right forelimb of the mouse; and a resulting tumor tissue was aseptically taken out, weighed, diluted with a sodium chloride injection according to a mass-to-volume ratio of 1:4, and then ground, then a mouse was routinely disinfected, and 0.2 mL of a resulting suspension was subcutaneously inoculated in an axillary region of a right forelimb of the mouse for passage, where the passage was continuously conducted twice. During this period, the mice were raised normally, and the states and tumor growth conditions of the mice were observed and recorded every week.
When a tumor volume in a tumor-bearing mouse to be passaged was about 1,200 mm 3, a tumor was ground and transplanted by a same method for molding. After the tumor inoculation was completed, a body weight of a mouse was measured, and mice were randomly selected and divided into 6 groups with 7 mice per group. After tumor colonization, the administration was started, which was recorded as Day 1 (D1). […]
After the experiment was completed, tumor tissues of animals that died unexpectedly and surviving animals that were euthanized each were peeled off and weighed, and a tumor weight difference of each group was calculated to further calculate a tumor-suppressing rate (IRTW) according to the following formula: […]
It was required in this scheme that measured and observed data results were manually recorded in appropriate forms or directly acquired by a computer. […]

[2] = General clinical observation and body weight of tumor-bearing mice during administration; details: mouse, in vivo
Method: According to body weights, animals were randomly divided into 6 groups, with 7 animals per group.
Observed animals: All animals
Observation frequency and time: The animals were observed once before each time of administration during the experiment, and administration and observation results were recorded.
Observation content: including, but not limited to, tumor growth, animal mental states, eating and drinking conditions, or the like.
Detected animals: All animals
Detection time: A body weight of an animal was measured and recorded when grouping (namely, before the first administration) (D1), before each subsequent administration, and before euthanasia.
A body weight and relevant information of an animal were measured and recorded if the animal died unexpectedly.

[3] = 5-Fluorouracil 18 mg/kg, twice a week

SMILES | Tumor-suppressing rate (%) [1, 3] [%] | Tumor weight [1, 3] | Body weight of mice during administration [2] | Tumor-suppressing rate (%) ([1]; TMZ 25 mg/kg, once every day) | Tumor weight ([1]; TMZ 25 mg/kg, once every day)
O=c1[nH]cc(F)c(=O)[nH]1 [5-Fluorouracil] | 52.7 | 1.3305 ± 0.6525 | reduced at a late stage of administration |  | 
Cn1nnc2c(C(N)=O)ncn2c1=O [TMZ, temozolomide] |  |  |  | 99.5 | 0.0134 ± 0.0091

Source: patent US20240058292A1, “PHARMACEUTICAL COMPOSITION FOR TREATING CANCER, AND PREPARATION METHOD AND USE THEREOF” (priority 2020, published 2024)
